From US10640495B2, “Heterocycle derivatives having TrkA inhibitory activity” (Shionogi & Co., Ltd., priority 2015, dated 2020) come the findings set out here.

For one experiment, the target named is human TrkA (Homo sapiens (Human), UniProt P04629). Put plainly: Human TrkA inhibition assay (Test Example 2). In kind it is biochemical. The conditions noted are these: Table 152, human TrkA inhibition; read-out: IC50_nM. A digest of the protocol: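 Recombinant TrkA (1 nmol/L) was preincubated 15 min at room temperature with compound in HEPES/MgCl2/DTT buffer, then reacted with FL-peptide 27 (1.5 μmol/L) and ATP (500 μmol/L) for 120 min at 37 °C. After EDTA stop, substrate phosphorylation was read by microfluidic mobility shift. IC50 came from logistic regression over 3-fold dilution series.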
Chain of human TrkA (P04629 440-796): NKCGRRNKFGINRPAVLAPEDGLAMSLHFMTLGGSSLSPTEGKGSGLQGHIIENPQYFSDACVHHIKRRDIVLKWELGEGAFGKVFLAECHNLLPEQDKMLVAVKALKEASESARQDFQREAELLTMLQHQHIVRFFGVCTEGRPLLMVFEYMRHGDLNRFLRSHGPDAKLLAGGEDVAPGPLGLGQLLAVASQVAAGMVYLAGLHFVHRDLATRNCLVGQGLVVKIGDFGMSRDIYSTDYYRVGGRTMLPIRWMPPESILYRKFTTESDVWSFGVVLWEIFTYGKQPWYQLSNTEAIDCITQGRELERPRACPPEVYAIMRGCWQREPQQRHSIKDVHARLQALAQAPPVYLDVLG
In the case of `COCCN1C[C@H](NC(=O)Nc2c(C)c(C3=CCN(C(C)=O)CC3)nn2-c2ccccc2)[C@@H](c2ccc(F)c(F)c2)O1` [Compound I-38], the IC50 was > 1000 nM. Same read-out and setting: then `COCCN1C[C@@H](NC(=O)Nc2c(C)c(-c3cnc4nc(C)nn4c3)nn2-c2ccccc2)[C@H](c2ccc(F)c(F)c2)O1` (racemic) [Compound I-43], with < 100 nM.

Still in this experiment, the particulars now being: Table 153, human TrkA inhibition; read-out: IC50.
Turning to `COCCN1C[C@@H](NC(=O)Nc2c(C)c(-c3cc(COC(C)=O)c(=O)n(C)c3)nn2-c2ccccc2)[C@H](c2cnc(F)c(F)c2)O1` (racemic) [Compound I-80], the IC50 was < 100 nM. Same read-out and setting: then `CNC(=O)c1cc(-c2nn(-c3ccccc3)c(NC(=O)N[C@@H]3CN(CCOC)O[C@H]3c3ccc(F)c(F)c3)c2C)cn(C)c1=O` (racemic) [Compound I-147], with < 100 nM; and `COCCN1C[C@@H](NC(=O)Nc2c(C)c(-c3cnc4c(cnn4C)c3)nn2-c2ccc(F)c(F)c2)[C@H](c2ccc(F)c(F)c2)O1` (racemic) [Compound I-175], with < 100 nM; and `COCCN1C[C@@H](NC(=O)Nc2c(C)c(-c3cnc4c(c3)nnn4C)nn2-c2ccccc2)[C@H](c2cccc(F)c2)O1` (racemic) [Compound I-142], with < 100 nM. For `COCCN1C[C@@H](NC(=O)Nc2c(C)c(-c3cnc4nccnc4c3)nn2-c2ccccc2)[C@H](c2ccc(F)c(F)c2)O1` (racemic) [Compound I-134], the IC50 is < 100 nM. Same read-out and setting: then `COCCN1C[C@@H](NC(=O)Nc2c(C)c(-c3cnc(OC)c(C(=O)NC4CCS(=O)(=O)CC4)c3)nn2-c2ccccc2)[C@H](c2ccnc(F)c2)O1` (racemic) [Compound I-112], with < 100 nM.

The same experiment, now with this note: Table 154, human TrkA inhibition; read-out: IC50.
As to `COCCN1C[C@@H](NC(=O)Nc2c(C)c(-c3ccnc(C(=O)NO)c3)nn2-c2ccccc2)[C@H](c2cnc(F)c(F)c2)O1` [Compound I-231], the IC50 is < 100 nM. The same measure, in the same setting: as for `COCCN1C[C@@H](NC(=O)Nc2c(C)c(-c3ccc4nc(C(N)=O)cn4c3)nn2-c2ccccc2)[C@H](c2ccnc(F)c2)O1` (racemic) [Compound I-282], the figure is < 100 nM; as for `COCCN1C[C@@H](NC(=O)Nc2c(C)c(-c3cc(C(N)=O)c(=O)n(C)n3)nn2-c2ccccc2)[C@H](c2ccnc(F)c2)O1` (racemic) [Compound I-301], < 100 nM; as for `COCCN1C[C@@H](NC(=O)Nc2c(C)c(-c3ccnc(C(=O)NO)c3)nn2-c2ccccc2)[C@H](c2ccnc(F)c2)O1` (racemic) [Compound I-230], < 100 nM. Same read-out and setting: then `COCCN1C[C@@H](NC(=O)Nc2c(C)c(-c3cnc4c(c3)c(C(F)(F)F)nn4C)nn2-c2ccccc2)[C@H](c2ccnc(F)c2)O1` (racemic) [Compound I-264], with < 100 nM; and `COCCN1C[C@@H](NC(=O)Nc2c(C)c(-c3cnc(OC)nc3)nn2-c2ccccc2)[C@H](c2cc(F)nc(F)c2)O1` (racemic) [Compound I-187], with < 100 nM; and `COCCN1C[C@@H](NC(=O)Nc2c(C)c(-c3cnc(OC)c(C(C)(C)O)c3)nn2-c2ccccc2)[C@H](c2ccnc(F)c2)O1` (racemic) [Compound I-308], with < 100 nM. On the same count and under the same terms, then `COCCN1C[C@@H](NC(=O)Nc2c(C)c(-c3ccc(N=S(C)(C)=O)cc3)nn2-c2ccccc2)[C@H](c2ccc(F)c(F)c2)O1` [Compound I-227], with < 100 nM; and `COCCN1C[C@@H](NC(=O)Nc2c(C)c(-c3ccnc(C(=O)OC)c3)nn2-c2ccccc2)[C@H](c2ccnc(F)c2)O1` (racemic) [Compound I-194], with < 100 nM.

The experiment is the same for the next values; noted with them: Table 155, human TrkA inhibition; read-out: IC50.
Turning to `COCCN1C[C@@H](NC(=O)Nc2c(C)c(-c3cnc4c(c3)c(C(=O)OC)nn4C)nn2-c2ccccc2)[C@H](c2ccnc(F)c2)O1` (racemic) [Compound I-369], the IC50 was < 100 nM. Still for that read-out and setting: as for `COCCN1C[C@@H](NC(=O)Nc2c(C)c(-c3ccc(C)nc3)nn2-c2ccccc2)[C@H](c2ccnc(F)c2)O1` (racemic) [Compound I-327], the figure is < 100 nM; as for `COCCN1C[C@@H](NC(=O)Nc2c(C)c(-c3cnc4c(c3)N(C)CCO4)nn2-c2ccccc2)[C@H](c2ccnc(F)c2)O1` (racemic) [Compound I-340], < 100 nM. The same measure, in the same setting: then `COCCN1C[C@@H](NC(=O)Nc2c(C)c(-c3cnc(C4=CCN(C)CC4)nc3)nn2-c2ccccc2)[C@H](c2ccnc(F)c2)O1` (racemic) [Compound I-445], with < 100 nM; and `COCCN1C[C@@H](NC(=O)Nc2c(C)c(-c3cnc4c(c3)nnn4C)nn2-c2ccccc2)[C@H](c2ccnc(F)c2)O1` [Compound I-342], with < 100 nM.

On to `COCCN1C[C@@H](NC(=O)Nc2c(C)c(-c3cnc4c(cnn4C)n3)nn2-c2ccccc2)[C@H](c2ccnc(F)c2)O1` (racemic) [Compound I-432], for which the IC50 was < 100 nM. As for `COCCN1C[C@@H](NC(=O)Nc2c(C)c(-c3cnc4c(c3)N(C)C(CO)CO4)nn2-c2ccccc2)[C@H](c2ccnc(F)c2)O1` (mixture of isomers) [Compound I-338], the IC50 is < 100 nM. Still for that read-out and setting: then `COCCN1C[C@@H](NC(=O)Nc2c(C)c(-c3ccncc3)nn2-c2ccccc2)[C@H](c2ccc(F)c(F)c2)O1` [Compound I-466], with < 100 nM; and `COCCN1C[C@@H](NC(=O)Nc2c(C)c(-c3cnc(COC)nc3)nn2-c2ccccc2)[C@H](c2cnc(F)c(F)c2)O1` [Compound I-512], with < 100 nM. Take `COCCN1C[C@@H](NC(=O)Nc2c(C)c(-c3cnc4c(c3)nc(C(=O)N3CCN(C)CC3)n4C)nn2-c2ccccc2)[C@H](c2ccnc(F)c2)O1` (racemic) [Compound I-403]: the IC50 is < 100 nM. Still for that read-out and setting: as for `COCCN1C[C@@H](NC(=O)Nc2c(C)c(-c3cnc(-c4cnn(C)c4)nc3)nn2-c2ccccc2)[C@H](c2ccnc(F)c2)O1` (racemic) [Compound I-368], the figure is < 100 nM. On the same count and under the same terms, as for `COCCN1C[C@@H](NC(=O)Nc2c(C)c(-c3cnc(N4CC(O)C4)nc3)nn2-c2ccccc2)[C@H](c2cc(F)nc(F)c2)O1` (racemic) [Compound I-321], the figure is < 100 nM; as for `COCCN1C[C@@H](NC(=O)Nc2c(C)c(-c3cnc(N4CC5(CCC5)C4)nc3)nn2-c2ccccc2)[C@H](c2ccnc(F)c2)O1` (racemic) [Compound I-485], < 100 nM. Take `CCN1C[C@@H](NC(=O)Nc2c(C)c(-c3cnc(OC)nc3)nn2-c2ccccc2)[C@H](c2ccc(F)c(F)c2)O1` (racemic) [Compound I-405]: the IC50 was < 100 nM.

Still in this experiment, the particulars now being: Table 156, human TrkA inhibition; read-out: IC50.
Take `COCCN1C[C@@H](NC(=O)Nc2c(C)c(-c3cnc(N4CCC(N(C)C)CC4)nc3)nn2-c2ccccc2)[C@H](c2ccnc(F)c2)O1` (racemic) [Compound I-532]: the IC50 is < 100 nM. On the same count and under the same terms, then `COCCN1C[C@@H](NC(=O)Nc2c(C)c(C)nn2-c2ccccc2)[C@H](c2ccnc(F)c2)O1` [Compound I-521], with < 100 nM.

Staying with this experiment, now noted: Table 157, human TrkA inhibition; read-out: IC50.
Turning to `CCN1C[C@@H](NC(=O)Nc2c(C)c(-c3cnc(N4CC(OC)C4)nc3)nn2-c2ccccc2)[C@H](c2ccc(F)c(F)c2)O1` (racemic) [Compound I-628], the IC50 was < 100 nM. Still for that read-out and setting: as for `CCN1C[C@@H](NC(=O)Nc2c(C)c(OCCCC(=O)N(C)C)nn2-c2ccccc2)[C@H](c2ccc(F)c(F)c2)O1` (racemic) [Compound I-664], the figure is < 100 nM. For the compound `COCCN1C[C@@H](NC(=O)Nc2c(C)c(OC3CCNCC3)nn2-c2ccccc2)[C@H](c2ccc(F)c(F)c2)O1` [Compound I-602], the IC50 is < 100 nM. The same measure, in the same setting: then `COCCN1C[C@@H](NC(=O)Nc2c(C)c(-c3cnc(OC)c(COC(C)=O)c3)nn2-c2ccccc2)[C@H](c2ccc(F)c(F)c2)O1` [Compound I-636], with < 100 nM; and `CCN1CCC(Oc2nn(-c3ccccc3)c(NC(=O)N[C@@H]3CN(CCOC)O[C@H]3c3ccc(F)c(F)c3)c2C)CC1` [Compound I-604], with < 100 nM; and `CCN1C[C@@H](NC(=O)Nc2c(C)c(-c3ccc4nc(C(N)=O)cn4c3)nn2-c2ccccc2)[C@H](c2ccc(F)c(F)c2)O1` (racemic) [Compound I-611], with < 100 nM.

The same experiment, now with this note: human TrkA 1 nmol/L, ATP 500 μmol/L, 120 min at 37° C.; read-out: IC50 values (TrkA phosphorylation inhibition).
As for `CNC(=O)c1ccc(-c2nn(-c3ccccc3)c(NC(=O)N[C@@H]3CN(CCOC)O[C@H]3c3ccc(F)c(F)c3)c2C)cn1` [Compound I-458], the IC50 was determined as 0.52 nM. On the same count and under the same terms, as for `COc1ncc(-c2nn(-c3ccccc3)c(NC(=O)N[C@@H]3CN(CC(F)F)O[C@H]3c3ccc(F)c(F)c3)c2C)cn1` (racemic) [Compound I-526], the figure is 22 nM; as for `COCCN1C[C@@H](NC(=O)Nc2c(C)c(-c3cnc(OCC(F)F)nc3)nn2-c2ccccc2)[C@H](c2ccnc(F)c2)O1` (racemic) [Compound I-436], 4 nM. Still for that read-out and setting: then `COCCN1C[C@@H](NC(=O)Nc2c(C)c(-c3cnc(C)nc3)nn2-c2ccccc2)[C@H](c2cc(F)nc(F)c2)O1` (racemic) [Compound I-285], with 2.7 nM; and `CNC(=O)c1ncc(-c2nn(-c3ccccc3)c(NC(=O)N[C@@H]3CN(CCOC)O[C@H]3c3cnc(F)c(F)c3)c2C)cc1F` (racemic) [Compound I-313], with 3.6 nM. On the same count and under the same terms, then `COCCN1C[C@@H](NC(=O)Nc2c(C)c(-c3cnc4c(c3)CC(=O)N4C)nn2-c2ccccc2)[C@H](c2cnc(F)c(F)c2)O1` (racemic) [Compound I-303], with 1.5 nM. Regarding `CCN1C[C@@H](NC(=O)Nc2c(C)c(-c3ccc(OC)nc3)nn2-c2ccccc2)[C@H](c2ccc(F)c(F)c2)O1` (racemic) [Compound I-627], the IC50 is 4.8 nM.

On to `COCCN1C[C@@H](NC(=O)Nc2c(C)c(-c3cnn(C)c3)nn2-c2ccccc2)[C@H](c2cnc(F)c(F)c2)O1` [Compound I-245], for which the IC50 is 3 nM. The same measure, in the same setting: then `COCCN1C[C@@H](NC(=O)Nc2c(C)c(-c3cnc4c(c3)[nH]c(=O)n4C)nn2-c2ccccc2)[C@H](c2cnc(F)c(F)c2)O1` [Compound I-258], with 0.48 nM.
